# Results: ChEMBL document CHEMBL1149646, “2D Quantitative structure-activity relationship studies on a series of cholesteryl ester transfer protein inhibitors” (Bioorg Med Chem, 2007)
# Molecular target: T1, Cholesteryl ester transfer protein (Homo sapiens, UniProt P11597)
# T1 sequence (P11597 whole entry): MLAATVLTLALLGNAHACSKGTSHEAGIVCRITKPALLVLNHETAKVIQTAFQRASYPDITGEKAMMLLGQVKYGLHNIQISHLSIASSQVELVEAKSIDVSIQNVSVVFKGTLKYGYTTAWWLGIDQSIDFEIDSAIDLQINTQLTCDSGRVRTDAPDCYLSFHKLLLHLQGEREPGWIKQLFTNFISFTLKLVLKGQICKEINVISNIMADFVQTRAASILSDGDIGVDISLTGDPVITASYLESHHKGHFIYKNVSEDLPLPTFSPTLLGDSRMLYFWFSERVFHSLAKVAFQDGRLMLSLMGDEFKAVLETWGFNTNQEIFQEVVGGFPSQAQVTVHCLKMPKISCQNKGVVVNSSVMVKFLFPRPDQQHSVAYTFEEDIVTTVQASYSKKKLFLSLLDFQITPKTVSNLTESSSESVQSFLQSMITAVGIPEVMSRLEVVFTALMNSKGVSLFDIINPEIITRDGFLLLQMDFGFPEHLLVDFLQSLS
# Assay: Inhibition of CETP
row,SMILES,IC50 [nM]
1,OC(CN(Cc1cccc(OC(F)(F)F)c1)c1cccc(Oc2ccccc2)c1)c1ccccc1 (centres undefined),50000
2,OC(CN(Cc1cccc2c1OC(F)(F)C(F)(F)O2)c1cccc(Oc2ccccc2)c1)C(F)(F)F (centres undefined),12000
3,CCCCC(O)CN(Cc1cccc(OC(F)(F)F)c1)c1cccc(Oc2ccccc2)c1 (centres undefined),3600
4,OC(CN(Cc1cccc(-c2cccc(C(F)(F)F)n2)c1)c1cccc(Oc2ccccc2)c1)C(F)(F)F (centres undefined),4080
5,Cc1cccc(-c2cccc(CN(CC(O)C(F)(F)F)c3cccc(Oc4ccccc4)c3)c2)n1 (centres undefined),15000
6,CC(C)(O)c1cccc(N(Cc2cccc(OC(F)(F)C(F)F)c2)CC(O)C(F)(F)F)c1 (centres undefined),7800
7,OC(CN(Cc1cccc(OC(F)(F)C(F)F)c1)c1cccc(-c2ccncc2)c1)C(F)(F)F (centres undefined),6240

# Stronger by IC50, values ahead:
row,IC50 [nM],SMILES
1,200,CCCCc1ccc(Oc2cccc(N(Cc3cccc(OC(F)(F)C(F)F)c3)CC(O)C(F)(F)F)c2)cc1 (centres undefined)
2,100,CC(C)(C)c1cccc(Oc2cccc(N(Cc3cccc(OC(F)(F)C(F)F)c3)CC(O)C(F)(F)F)c2)c1 (centres undefined)
3,90,OC(CN(Cc1cccc(OC(F)(F)C(F)F)c1)c1cccc(OCc2ccccc2CC(F)(F)F)c1)C(F)(F)F (centres undefined)
4,80,OC(CN(Cc1cccc(OC(F)(F)C(F)F)c1)c1cccc(Oc2ccc(F)c(F)c2)c1)C(F)(F)F (centres undefined)
5,70,Cc1cc(C)cc(Oc2cccc(CN(CC(O)C(F)(F)F)c3cccc(Oc4ccccc4)c3)c2)c1 (centres undefined)
6,60,OC(CN(Cc1cccc(OC(F)(F)C(F)F)c1)c1cccc(OCc2ccccc2OC(F)(F)F)c1)C(F)(F)F (centres undefined)
7,30,OC(CN(Cc1cccc(OC(F)(F)C(F)F)c1)c1cccc(Oc2cccc(CC(F)(F)F)c2)c1)C(F)(F)F (centres undefined)
